Assay results reported in a melting point compilation (Tetko et al.; mined from patent text by program, amines drawn as free bases though some values may be those of a salt).

Compound | melting point
N=C(N)Nc1nc(CCCCC(N)=NO)cs1 | 167 to 168 °C
COc1cc2c(cc1OC)CC(O)(CC(=O)O)CC2 (centres undefined) | 100 to 102 °C
C[C@H](NC(=O)OC(C)(C)C)c1nc2c(C(F)(F)F)cccc2c(=O)o1 | 174 °C
O=C1COC2(CCN(CCc3c[nH]c4ccccc34)CC2)CN1 | 48 to 50 °C
Cc1c(C)c2c(c(C)c1O)CC(C)C(C(=S)Nc1ccccc1)O2 (centres undefined) | 175 °C
O=c1[nH]c2ccc(C(F)(F)F)cc2c(-c2cc(Cl)ccc2O)c1CO | > 250 °C
NCc1ccn(-c2cc3[nH]c(=O)c(=O)[nH]c3cc2[N+](=O)[O-])c1 | > 300 °C
CC(C)CSc1c(-c2ccc(S(C)(=O)=O)cc2)cnn(CC(F)(F)F)c1=O | 135 to 138 °C
CC1=N[C@H](c2ccccc2)COC1=O | 71 to 72 °C
CCCCCCCc1ccc(C(=O)c2cccc(C(=O)O)c2)cc1 | 124 to 126 °C
CCN1C(=O)CC2(CC(=O)N(Cc3ccccc3)C2)C1=O (centres undefined) | 125 to 126 °C
CC1(C)OC(=O)Nc2ccc(-c3ccc(F)c(C#N)c3)cc21 | 255 to 256 °C
C=Cc1ccc(OS(C)(=O)=O)cc1 | 57 to 58 °C
Cc1cc(C)c(Oc2nc(C)nc(Cl)c2Cl)c(C)c1 | 68 to 70 °C
Cc1cc(O)nc(C=Cc2ccccc2)n1 | 217 to 219 °C
CC(=O)c1ccc(-c2cccc(C(F)(F)F)c2)o1 | 105 to 109 °C
CNC(=O)NCCCCc1cccc(OC)c1 | 74 to 75.5 °C
CNc1ccc2sc3ccc(Br)cc3c(=O)c2c1 | 198 to 200 °C
O=C(Nc1ccc2ccc(Cl)nc2n1)c1ccc(Cl)s1 | 275 °C
CCOC(=O)/C(=N\OCc1c(Cl)cccc1Cl)c1csc(N)n1 | 171 to 172 °C
CC(=O)Oc1ccc(C=C2SC(=O)NC2=O)cc1 | 238 to 240 °C
COc1ccc2c(c1)COc1c-2ccc2cc(OC)ccc12 | 175 to 178 °C
CC(C)(C)OC(=O)C(C(=O)c1ccc(NS(C)(=O)=O)cc1Cl)C(=O)C1CC1 (centres undefined) | 137 to 140 °C
COc1ncccc1-c1cncc(OC2SCC(OC(C)=O)C(OC(C)=O)C2OC(C)=O)c1 (centres undefined) | 167 °C
CC(=O)C1CCC2C3CCC4CC(O)(C#Cc5ccccn5)CCC4(C)C3CCC12C (centres undefined) | 192 to 195 °C

Compound | melting point
Clc1ccc2c(N3CCCC4CCCC(N5CCCC5)C43)ccnc2c1 (centres undefined) | 136 to 138 °C
c1ccc(-c2ccc(-c3cn([C@H]4CN5CCC4CC5)nn3)s2)cc1 | 184 °C
CC1CCCN(c2cccc3c2C(=N)NC3N)C1 (centres undefined) | 104 °C
CN1CCN(c2ccc3[nH]c(=O)oc(=O)c3c2)CC1 | 285 °C
Cc1c(Cc2ccccc2)c(=O)oc2cc(OCC(=N)NO)cc(OCC(=N)NO)c12 | 155 to 160 °C
CC1CCC(C(C)C)C(OC(=O)C2C(=O)N(Cc3ccc(Br)cc3F)C(=O)c3cccn32)C1 (centres undefined) | 98 to 99 °C
CSc1ccc(Oc2cccc(C=O)n2)cc1 | 60 to 63 °C
O=C(O)c1cnc2cc3c(cc2c1O)OCO3 | > 290 °C
Cc1ccc2c(Sc3ccc(Cl)c(Cl)c3)c(C(=O)O)[nH]c2c1 | 252 to 255 °C
O=C(CCC(O)c1ccccc1)NC1CCCCC1 (centres undefined) | 91 to 93 °C
O=c1[nH]c(=O)c2cccnc2[nH]1 | 360 °C
CCOC(=O)c1cn(-c2ccncc2F)c2nc(Cl)c(F)cc2c1=O | 226 °C
CC(C)NC1=NS(=O)(=O)c2cc([N+](=O)[O-])ccc2N1 | 311 to 313 °C
CC(C)CCNC(=O)c1c(N)cc(Cl)cc1Cl | 148 to 150 °C
CCn1c(=O)c2nc(C=O)cn2c2ccccc21 | 302 to 306 °C
CC(=O)OCCn1ncc(-c2ncc([N+](=O)[O-])n2C)c1C | 79 °C
CC(O)CN1C(C)(C)CC(O)CC1(C)C (centres undefined) | 97 to 98 °C
CN1CCC(C2c3sccc3C=Cn3ncnc32)CC1 (centres undefined) | 137 °C
COc1ccc(C(=O)O)cc1OC1C=CCC1 (centres undefined) | 160 to 163 °C
CCC#CC1(C(F)(F)F)OC(=O)Nc2ccc(OC)cc21 (centres undefined) | 161 to 162 °C
O=C(CCc1c(C(=O)OCCN2CCOCC2)[nH]c2cc(Cl)cc(Cl)c12)OCCN1CCOCC1 | 110 to 112 °C
COc1cccc2c1OCC(C(=O)O)O2 (centres undefined) | 85 to 87 °C
CN(C)C=C(C#N)C(=O)Nc1ccccc1Cl | 122 to 123 °C
CC(C)(C)COCCOc1ccc(OCC(O)CNCCNC(=O)N2CCOCC2)cc1 (centres undefined) | 90 °C
CC(=O)NC1CSC(=S)N(c2cccc(F)c2)C1=O (centres undefined) | 176 to 177 °C

Other lines, results leading:

melting point | Compound
129 to 132 °C | O=C1N(c2ccccc2Br)Cc2cnc(Nc3ccccc3)nc2N1c1ccc(CO)cc1
135 to 136 °C | COC(=O)c1cccc(-c2ccc(O)cc2)c1
221 °C | CCC(=S)C1=C(C)NC2=C(C(=O)c3ccccc32)C1c1ccccc1[N+](=O)[O-] (centres undefined)
111 to 112 °C | CC(=O)NCCCc1ccc(OC2CCc3cc(Cl)ccc32)cc1 (centres undefined)
92 to 94 °C | COc1ccc2c(c1)c(Cc1cc(=O)n(-c3ccc(C(F)(F)F)cc3)[nH]1)c(C)n2C(=O)c1ccc(C#N)cc1
68 to 75 °C | COC(=O)C(C)(C)COc1ccc(CNC(=O)C2Cc3ccccc3N2S(=O)(=O)c2ccc(-c3ccccc3C(F)(F)F)cc2)cc1 (centres undefined)
161 °C | O=C(c1cc2ccccc2c(-c2ccccc2Cl)n1)N1CCCCC1
106 to 109 °C | CCCOC(Cc1ccc(OCCc2nc(-c3ccccc3)oc2C)c2ccsc12)C(=O)O (centres undefined)
135 to 137 °C | O=C1CCN(Cc2ccccc2)CC1=C(c1ccccc1)c1ccccc1
232 to 235 °C | COc1ccc2c(c1OCCc1ccccc1)CC(C(=O)O)NC2 (racemic)
156 to 157 °C | Cc1ccn2c(=O)c(CCN3CCN(c4ccc(Cl)cc4)CC3)c(C)nc2c1
165 to 167 °C | CC(O)c1ccc(-c2ccc(OCc3ccc(Cl)cc3)cc2)cc1 (single isomer, unassigned; (+))
> 260 °C | CC(C)(C)c1cc(N2CCN(C(=O)c3ccc(N)cc3)C2=O)cc(C(C)(C)C)c1O
222 to 224 °C | CN1C(=O)N(c2c(Cl)cccc2Cl)Cc2cnc(Nc3ccccc3)nc21
156 to 157 °C | CN1CCN(Cc2ccc3nc(-c4ccc(Cl)c(C#Cc5cnc6cccnn56)c4)[nH]c3c2)CC1
131 to 132 °C | N#Cc1ccc2ccn(C3CCN(CCc4ccc(F)cc4)CC3)c2c1
153 to 155 °C | COc1cccc(-c2cn(C)cc(-c3cccc(C(F)(F)F)c3)c2=O)c1OC
230 to 232 °C | Clc1ccc(-c2c(Cc3nnn[nH]3)cnn2-c2ccccc2)cc1
96 to 97 °C | CCOC(Nc1ccccc1)(OCC)C1(F)C=CN=C(C(=O)c2ccc(Cl)cc2)C1 (centres undefined)
226 to 228 °C | Cc1nc2c(N)nc3ccccc3c2n1CCCNC(=O)N1CCOCC1
36 to 36.5 °C | CC(C)c1cccc2cc3ccccc3cc12
127 °C | COc1ccccc1CNC(=O)c1ccc2c(c1)N(C(C)CN1CCCC1)c1ccccc1S2 (racemic)
99 to 101 °C | COc1cc(C(C)=O)ccc1OCCCCN1CCC(c2noc3ccccc23)CC1
130 °C | CCNC(=O)c1ccc(F)c2c1CC(N(CCCc1c[nH]c3ccc(F)cc13)C1CCC1)CO2 (centres undefined)
